Assay results reported in ChEMBL document CHEMBL3259582, “Structure-activity relationship-guided development of retinoic acid receptor-related orphan receptor gamma (RORγ)-selective inverse agonists with a phenanthridin-6(5H)-one skeleton from a liver X receptor ligand” (Bioorg Med Chem, 2014).

Experiments:
[1] = target: T1, Nuclear receptor ROR-gamma (Homo sapiens, UniProt P51449); test: Inverse agonist activity at human ROR-gamma1 expressed in HEK293 cells after 16 hrs by luciferase reporter gene assay; type: cell-based
T1 sequence (P51449 whole entry): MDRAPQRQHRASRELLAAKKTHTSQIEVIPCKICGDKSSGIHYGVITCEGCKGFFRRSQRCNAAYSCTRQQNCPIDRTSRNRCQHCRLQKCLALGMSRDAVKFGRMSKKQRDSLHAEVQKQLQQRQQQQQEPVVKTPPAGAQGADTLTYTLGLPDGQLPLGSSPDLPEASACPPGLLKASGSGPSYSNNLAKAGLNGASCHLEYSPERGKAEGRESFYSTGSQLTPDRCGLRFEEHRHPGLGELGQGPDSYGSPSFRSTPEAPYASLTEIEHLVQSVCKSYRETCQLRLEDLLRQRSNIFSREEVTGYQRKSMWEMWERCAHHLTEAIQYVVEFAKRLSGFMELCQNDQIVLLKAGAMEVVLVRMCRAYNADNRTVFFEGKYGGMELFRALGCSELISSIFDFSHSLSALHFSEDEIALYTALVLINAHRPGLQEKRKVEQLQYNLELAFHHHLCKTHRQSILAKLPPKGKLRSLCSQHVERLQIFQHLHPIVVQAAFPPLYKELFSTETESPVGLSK

[2] = target: T2, Nuclear receptor ROR-alpha (Homo sapiens, UniProt P35398); test: Inverse agonist activity at human ROR-alpha1 expressed in HEK293 cells after 16 hrs by luciferase reporter gene assay; type: cell-based
T2 sequence (P35398 whole entry): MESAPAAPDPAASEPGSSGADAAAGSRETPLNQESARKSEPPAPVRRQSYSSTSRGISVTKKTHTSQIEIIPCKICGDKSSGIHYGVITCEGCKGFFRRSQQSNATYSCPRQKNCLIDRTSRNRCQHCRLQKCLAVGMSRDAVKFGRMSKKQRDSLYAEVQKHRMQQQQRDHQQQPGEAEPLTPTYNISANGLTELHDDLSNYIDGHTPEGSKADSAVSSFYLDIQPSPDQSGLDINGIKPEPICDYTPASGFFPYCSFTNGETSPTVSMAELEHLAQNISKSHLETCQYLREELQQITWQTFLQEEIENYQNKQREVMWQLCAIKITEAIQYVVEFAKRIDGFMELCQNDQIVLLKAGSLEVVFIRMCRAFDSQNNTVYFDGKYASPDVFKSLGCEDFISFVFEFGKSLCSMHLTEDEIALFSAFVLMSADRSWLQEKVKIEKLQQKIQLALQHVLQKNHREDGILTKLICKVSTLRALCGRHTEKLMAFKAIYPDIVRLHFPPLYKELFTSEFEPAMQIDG

[3] = target: T3, Nuclear receptor ROR-beta (Homo sapiens, UniProt Q92753); test: Inverse agonist activity at human ROR-beta expressed in HEK293 cells after 16 hrs by luciferase reporter gene assay; type: cell-based
T3 sequence (Q92753 whole entry): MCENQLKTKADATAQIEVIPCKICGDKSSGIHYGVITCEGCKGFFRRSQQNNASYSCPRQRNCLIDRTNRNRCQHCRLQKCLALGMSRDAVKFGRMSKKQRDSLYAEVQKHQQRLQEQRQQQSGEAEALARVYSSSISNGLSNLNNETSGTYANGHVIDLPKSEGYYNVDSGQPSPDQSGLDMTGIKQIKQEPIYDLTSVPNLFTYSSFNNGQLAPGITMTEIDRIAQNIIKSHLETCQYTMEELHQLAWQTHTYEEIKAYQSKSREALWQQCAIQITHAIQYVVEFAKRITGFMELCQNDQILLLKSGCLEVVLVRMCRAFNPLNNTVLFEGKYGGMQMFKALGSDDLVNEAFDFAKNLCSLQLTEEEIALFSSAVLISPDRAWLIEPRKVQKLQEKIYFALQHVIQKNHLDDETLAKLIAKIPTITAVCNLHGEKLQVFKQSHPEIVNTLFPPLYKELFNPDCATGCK

HEK293 = test: Cytotoxicity against HEK293 cells; type: cell-based; settings: human
[4] = target: T4, Oxysterols receptor LXR-alpha (Homo sapiens, UniProt Q13133); test: Antagonist activity at human LXR-alpha expressed in HEK293 cells assessed as inhibition of T0901317-induced effect after 16 hrs by luciferase reporter gene assay; type: cell-based
T4 sequence (Q13133 whole entry): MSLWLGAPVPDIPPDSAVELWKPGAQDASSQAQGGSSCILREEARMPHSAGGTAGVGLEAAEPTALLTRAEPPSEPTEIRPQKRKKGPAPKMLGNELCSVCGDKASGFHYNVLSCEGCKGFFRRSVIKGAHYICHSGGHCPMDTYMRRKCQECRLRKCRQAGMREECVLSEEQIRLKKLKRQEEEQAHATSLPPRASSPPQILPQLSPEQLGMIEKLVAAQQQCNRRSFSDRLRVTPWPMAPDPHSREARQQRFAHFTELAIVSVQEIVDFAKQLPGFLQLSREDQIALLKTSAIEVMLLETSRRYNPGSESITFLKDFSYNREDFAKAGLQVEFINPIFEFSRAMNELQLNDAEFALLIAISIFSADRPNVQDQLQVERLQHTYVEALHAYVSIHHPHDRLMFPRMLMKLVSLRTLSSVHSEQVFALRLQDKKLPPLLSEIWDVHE

[5] = target: T4, Oxysterols receptor LXR-alpha; test: Agonist activity at human LXR-alpha expressed in HEK293 cells after 16 hrs by luciferase reporter gene assay
[6] = target: T5, Oxysterols receptor LXR-beta (Homo sapiens, UniProt P55055); test: Agonist activity at human LXR-beta expressed in HEK293 cells after 16 hrs by luciferase reporter gene assay
T5 sequence (P55055 whole entry): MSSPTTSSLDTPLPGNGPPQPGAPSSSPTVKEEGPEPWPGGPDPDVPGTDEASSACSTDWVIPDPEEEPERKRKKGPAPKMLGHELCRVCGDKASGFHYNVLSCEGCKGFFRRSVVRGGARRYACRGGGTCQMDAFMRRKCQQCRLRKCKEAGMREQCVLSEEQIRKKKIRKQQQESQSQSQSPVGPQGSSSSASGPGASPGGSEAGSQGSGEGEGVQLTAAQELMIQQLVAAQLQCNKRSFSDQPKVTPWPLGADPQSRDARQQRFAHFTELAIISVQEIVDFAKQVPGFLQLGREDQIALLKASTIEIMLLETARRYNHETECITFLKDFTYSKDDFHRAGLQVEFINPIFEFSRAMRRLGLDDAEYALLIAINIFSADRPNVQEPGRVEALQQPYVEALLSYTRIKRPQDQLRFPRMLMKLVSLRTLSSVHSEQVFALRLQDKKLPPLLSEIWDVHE

[7] = target: T5, Oxysterols receptor LXR-beta; test: Antagonist activity at human LXR-beta expressed in HEK293 cells assessed as inhibition of T0901317-induced effect after 16 hrs by luciferase reporter gene assay; type: cell-based
[8] = target: T5, Oxysterols receptor LXR-beta; test: Antagonist activity at human LXR-beta expressed in HEK293 cells after 16 hrs by luciferase reporter gene assay; type: cell-based
[9] = target: T4, Oxysterols receptor LXR-alpha; test: Antagonist activity at human LXR-alpha expressed in HEK293 cells after 16 hrs by luciferase reporter gene assay; type: cell-based

IC50 ([1]; read-out: IC50) [µM] | IC50 ([2]; read-out: IC50) [µM] | IC50 ([3]; read-out: IC50) [µM] | SMILES | further results
> 20 | > 20 | > 20 | CCCCCCCCCn1c(=O)c2ccccc2c2cc(C(O)(C(F)(F)F)C(F)(F)F)ccc21 | 
> 20 | > 20 | > 20 | O=c1[nH]c2ccc(C(O)(C(F)(F)F)C(F)(F)F)cc2c2ccccc12 | 
 |  |  | CCCCn1c(=O)c2c(OC)cccc2c2cc(C(O)(C(F)(F)F)C(F)(F)F)ccc21 | Activity (HEK293): Toxic
 |  |  | CC(=O)Nc1nc(C)c(S(=O)(=O)Nc2ccc(C(O)(C(F)(F)F)C(F)(F)F)cc2)s1 | IC50 ([4]; hek293): Not Active; EC50 [5]: Not Active; EC50 [6]: Not Active; IC50 ([7]; hek293): Not Active
 |  |  | CCCCn1c(=O)c2cc(OC)ccc2c2cc(C(O)(C(F)(F)F)C(F)(F)F)ccc21 | Activity (HEK293): Toxic
> 10 | > 10 | > 10 | CCCCn1c(=O)c2ccccc2c2cc(C(O)(C(F)(F)F)C(F)(F)F)cc(OC)c21 | 
 |  |  | O=S(=O)(c1ccccc1)N(CC(F)(F)F)c1ccc(C(O)(C(F)(F)F)C(F)(F)F)cc1 [T091317] | IC50 [8]: Not Active; IC50 [9]: Not Active; IC50 ([3]; hek293): Not Active
9.2 | 7.8 | 10.9 | CCCCn1c(=O)c2ccccc2c2cc(C(O)(C(F)(F)F)C(F)(F)F)c(OC)cc21 | 
16.8 | 17.6 | 17.1 | CCCCn1c(=O)c2ccccc2c2cc(C)ccc21 | 
5.7 | 9.1 | 7.5 | CCCCn1c(=O)c2cccc(OC)c2c2cc(C(O)(C(F)(F)F)C(F)(F)F)ccc21 | 
> 20 | > 20 | > 20 | CCCCn1c(=O)c2ccccc2c2cc(CO)ccc21 | 
> 20 | > 20 | > 20 | Cn1c(=O)c2ccccc2c2cc(C(O)(C(F)(F)F)C(F)(F)F)ccc21 | 
9.2 | 9 | 7.9 | CCCCn1c(=O)c2ccccc2c2cc(CC)ccc21 | 
4.2 | 10.8 | 8.2 | CCCn1c(=O)c2ccccc2c2cc(C(O)(C(F)(F)F)C(F)(F)F)ccc21 | 
 |  |  | CCCCn1c(=O)c2ccc(Cl)cc2c2cc(C(O)(C(F)(F)F)C(F)(F)F)ccc21 | IC50 ([4]; read-out: IC50): > 3 µM; EC50 [5]: Not Active; EC50 [6]: Not Active; IC50 ([7]; read-out: IC50): 0.68 µM
4.7 | 7.6 | 5.4 | CCCCCCn1c(=O)c2ccccc2c2cc(C(O)(C(F)(F)F)C(F)(F)F)ccc21 | 
14.5 | 10.2 | 13.4 | CCCCn1c(=O)c2ccccc2c2ccccc21 | 
 |  |  | CCCCCCCCCCCCc1ccc2c(c1)c1ccccc1c(=O)n2CCCC | IC50 ([1]; hek293): Not Active; IC50 ([2]; hek293): Not Active; IC50 ([3]; hek293): Not Active
> 20 | > 20 | > 20 | CCn1c(=O)c2ccccc2c2cc(C(O)(C(F)(F)F)C(F)(F)F)ccc21 | 
10.4 | 11.8 | 12.8 | CCCCn1c(=O)c2ccccc2c2cc(C(C)(C)C)ccc21 | 
1.1 | 5.3 | 7.7 | CCCCn1c(=O)c2ccc(OC)cc2c2cc(C(O)(C(F)(F)F)C(F)(F)F)ccc21 | 

SMILES | IC50 ([1]; read-out: IC50) [µM] | IC50 ([2]; read-out: IC50) [µM] | IC50 ([3]; read-out: IC50) [µM] | further results
CCCCn1c(=O)c2ccccc2c2cc(C(O)(C(F)(F)F)C(F)(F)F)ccc21 | 3.9 | 9.8 | 6.5 | 
